The term Ki denotes a measure of affinity in units of concentration, obtained from inhibition or displacement. The low end stands for tighter binding, the high end for weaker binding.

In one test the target is human GCGR (Homo sapiens (Human), UniProt P47871). Nature of the test: Cellular functional assay, cAMP readout (glucagon-stimulated cAMP in HEK293 cells expressing human GCGR). The test is classed as cell-based. The settings on record: hGluc-1 HEK cells, LANCE TR-FRET, IC50 converted to Ki, average if tested more than once. As for the experimental part:
IC50 Values in Cellular Functional Assays: cAMP Readout
Full-length human GCGR (Accession Number: NM000160) subcloned into pcDNA3.1 was stably transfected into HEK293 cells (hGluc-1 HEK) and maintained under G418 selection (500 μg/mL). Cell cultures were maintained in DMEM/F12 media supplemented with 10% FBS and 1% GlutaMax. Glucagon stimulated cAMP was quantified using LANCE technology as per manufacturer instructions. On the day of the experiment, spent media was removed and cells were washed with Hank's Buffered Saline solution (HBSS) and cells were harvested with non-enzymatic cell dissociation solution, then washed once with HBSS. Cells were re-suspended in stimulation buffer at a concentration of 0.83×10^6 cells/ml and cAMP detection antibody was added. 6 μl/well of this solution was then dispensed in a 384 well plate (cell density 5000 cells/well). Test compound was serially diluted in DMSO and 50 nl were dispensed on top of the cell solution and allowed to incubate for 30 minutes. 6 μl of a 2× glucagon solution (final concentration in assay […]) was then added and the reaction was terminated after 5 minutes with the addition of detection mix. The mixture was incubated, protected from light for 1.5 h. cAMP levels were quantified by TR-FRET in an EnVision instrument against a known standard. IC50's were generated by using a non-linear regression macro driven in Excel and converted to K, values.

Test [1] deals with human glucagon receptor (GCGR) (Homo sapiens (Human), UniProt P47871). Description: Inhibition of 125I-glucagon binding to membranes from HEK293 cells expressing the human glucagon receptor. The note with it: membranes of hGluc-1 HEK cells, 125I-glucagon 0.3 nM, 2 hours room temperature; IC50 converted to Ki; average if tested more than once. The procedure:
Inhibition ^125I-Glucagon Binding to Membranes from HEK293 Cells Expressing the Human Glucagon Receptor (GCGR)
Full-length human GCGR (Accession Number: NM000160) subcloned into pcDNA3.1 was stably transfected into HEK293 cells (hGluc-1 HEK) and maintained under G418 selection (500 μg/mL). Cell cultures were maintained in DMEM/F12 media supplemented with 10% FBS and 1% GlutaMax. Membranes were prepared from these cells as follows: cells were harvested from T225 flasks and re-suspended in hypotonic lysis buffer, 50 mM HEPES pH 7.4 supplemented with Complete Protease inhibitors (Boehringer Mannheim, Indianapolis, Ind.). Cells were dounced 20 times on ice and spun at 700×g to remove nuclei and unlysed cells. The resulting pellet was re-suspended in hypotonic lysis buffer and the above step was repeated. Supernatants from the low speed centrifugation were combined and subsequently spun at 100K×g for 1 hr at 4° C. and the resulting pellet was re-suspended in buffer containing 50 mM HEPES pH 7.4 and 10% sucrose and the protein concentration was adjusted at 1 mg/mL as determined in the BCA assay. Membranes were aliquoted and stored at −80° C. The binding assay was performed by a filtration method in a 384 well format. Membranes at a final protein concentration of 6 μg/well were incubated with ^125I-glucagon at 0.3 nM and in the presence of compound for 2 hours at room temperature in a total reaction volume of 40 μL per well. Assay buffer consisted of 50 mM HEPES, pH 7.4, 5 mM MgCl2, 1 mM CaCl2 and 0.2% BSA. 30 μL of the reaction was then transferred to PEI treated filter plates and followed by filter aspiration. Plates were then washed 5× and allowed to dry at room temperature overnight. The next day the bottom of the plate was covered with seal tape and scintillant was added. Total counts retained by the filters were quantified with a Top Count instrument. IC50's were generated by using a non-linear regression macro driven in Excel and converted to K's.

Molecules are shown by their SMILES.

human GCGR, sequence (P47871 26-477): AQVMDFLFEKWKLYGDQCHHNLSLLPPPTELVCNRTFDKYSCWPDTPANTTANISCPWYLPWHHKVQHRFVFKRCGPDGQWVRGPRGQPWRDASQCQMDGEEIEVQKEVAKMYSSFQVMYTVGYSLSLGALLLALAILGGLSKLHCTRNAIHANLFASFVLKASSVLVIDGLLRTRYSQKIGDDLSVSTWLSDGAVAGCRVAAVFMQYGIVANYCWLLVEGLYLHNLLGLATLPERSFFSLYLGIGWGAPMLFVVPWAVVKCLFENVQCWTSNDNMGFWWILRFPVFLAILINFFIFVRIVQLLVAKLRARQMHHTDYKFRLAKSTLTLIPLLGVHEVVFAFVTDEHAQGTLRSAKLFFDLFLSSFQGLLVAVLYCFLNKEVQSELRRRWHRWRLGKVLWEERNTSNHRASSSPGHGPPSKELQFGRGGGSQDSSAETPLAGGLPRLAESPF
human glucagon receptor (GCGR), sequence (P47871 26-477): as above

Take `O=C(O)CCNC(=O)c1ccc(-c2ccccc2CNc2ccc(-c3ccccc3)cc2)cn1` [Compound 1, 3-(5-(2-(([1,1′-biphenyl]-4-ylamino)methyl)phenyl)picolinamido)propanoic acid]: the figures for the inhibition constant (Ki) (on human GCGR; in test [1]) were more than 10400 nM and more than 5400 nM, respectively.
Consider `O=C(O)CCNC(=O)c1ccc(-c2ccccc2CNc2ccc(-c3ccc(Cl)cc3)cc2)cn1` [Compound 2, 3-(5-(2-(((4′-chloro-[1,1′-biphenyl]-4-yl)amino)methyl)phenyl)picolinamido)propanoic acid], for which the Ki on human GCGR amounted to 510 nM; in test [1], 187 nM.
`CC(C)(C)c1ccc(-c2ccc(NCc3ccccc3-c3ccc(C(=O)NCCC(=O)O)nc3)cc2)cc1` [Compound 3, 3-(5-(2-(((4′-(tert-butyl)-[1,1′-biphenyl]-4-yl)amino)methyl)phenyl)picolinamido)propanoic acid]: the inhibition constant Ki on human GCGR is more than 10400 nM; in test [1], more than 5400 nM.
With `O=C(O)CCNC(=O)c1ccc(-c2ccc(Cl)cc2CNc2ccc(-c3ccc(Cl)cc3)cc2)cn1` [Compound 4, 3-(5-(4-chloro-2-(((4′-chloro-[1,1′-biphenyl]-4-yl)amino)methyl)phenyl)picolinamido)propanoic acid], the Ki worked out at 210 nM on human GCGR and 64.9 nM in test [1].
With `O=C(O)CCNC(=O)c1ccc(-c2ccc(Cl)cc2CNc2ccc(-c3ccc(Cl)cc3Cl)cc2)cn1` [Compound 5, 3-(5-(4-chloro-2-(((2′,4′-dichloro-[1,1′-biphenyl]-4-yl)amino)methyl)phenyl)picolinamido)propanoic acid], the Ki at human GCGR stood at 181 nM; in test [1] it was 67.1 nM.
`O=C(O)CCNC(=O)c1ccc(-c2cc(Cl)ccc2CNc2ccc(-c3ccc(Cl)cc3)cc2)cn1` [Compound 6, 3-(5-(5-chloro-2-(((4′-chloro-[1,1′-biphenyl]-4-yl)amino)methyl)phenyl)picolinamido)propanoic acid]: the figures for the Ki (on human GCGR; in test [1]) were 50.5 nM and 40.1 nM, respectively.
Consider `O=C(O)CCNC(=O)c1ccc(-c2cc(Cl)ccc2CNc2ccc(-c3ccc(Cl)cc3Cl)cc2)cn1` [Compound 7, 3-(5-(5-chloro-2-(((2′,4′-dichloro-[1,1′-biphenyl]-4-yl)amino)methyl)phenyl)picolinamido)propanoic acid], for which the inhibitory constant (Ki) on human GCGR stood at 44.8 nM; in test [1], 22.4 nM.
Turning to `O=C(O)CCNC(=O)c1ccc(-c2cc(C(F)(F)F)ccc2CNc2ccc(-c3ccc(Cl)cc3F)c(C(F)(F)F)c2)cn1` [Compound 126, 3-(5-(2-(((4′-chloro-2′-fluoro-2-(trifluoromethyl)-[1,1′-biphenyl]-4-yl)amino)methyl)-5-(trifluoromethyl)phenyl)picolinamido)propanoic acid], the Ki at human GCGR was more than 5200 nM.
Still for that read-out and setting: the value for `O=C(O)CCNC(=O)c1ccc(-c2cc(C(F)(F)F)ccc2CNc2ccc(-c3ccc(C(F)(F)F)cc3)c(C(F)(F)F)c2)cn1` [Compound 127, 3-(5-(2-(((2,4′-bis(trifluoromethyl)-[1,1′-biphenyl]-4-yl)amino)methyl)-5-(trifluoromethyl)phenyl)picolinamido)propanoic acid] was 70 nM; that for `O=C(O)CCNC(=O)c1ccc(-c2cc(C(F)(F)F)ccc2CNc2ccc(-c3ccc(C(F)(F)F)cc3Cl)c(C(F)(F)F)c2)cn1` [Compound 128, 3-(5-(2-(((2′-chloro-2,4′-bis(trifluoromethyl)-[1,1′-biphenyl]-4-yl)amino)methyl)-5-(trifluoromethyl)phenyl)picolinamido)propanoic acid] was 45.8 nM; that for `COc1cc(C(F)(F)F)cc(-c2ccc(C(=O)NCCC(=O)O)nc2)c1CNc1ccc(-c2ccc(C(F)(F)F)cc2)c(Cl)c1` [Compound 159, 3-(5-(2-(((2-chloro-4′-(trifluoromethyl)-[1,1′-biphenyl]-4-yl)amino)methyl)-3-methoxy-5-(trifluoromethyl)phenyl)picolinamido)propanoic acid] was 45.8 nM.
`COc1cc(C(F)(F)F)cc(-c2ccc(C(=O)NCCC(=O)O)nc2)c1CNc1cc(Cl)c(-c2ccc(Cl)cc2)c(Cl)c1` [Compound 160, 3-(5-(3-methoxy-2-(((2,4′,6-trichloro-[1,1′-biphenyl]-4-yl)amino)methyl)-5-(trifluoromethyl)phenyl)picolinamido)propanoic acid] yielded a Ki at human GCGR of 650 nM.
At human GCGR, `COc1cc(C(F)(F)F)cc(-c2ccc(C(=O)NCCC(=O)O)nc2)c1CNc1ccc(-c2ccc(C(F)(F)F)cc2Cl)cc1` [Compound 161, 3-(5-(2-(((2′-chloro-4′-(trifluoromethyl)-[1,1′-biphenyl]-4-yl)amino)methyl)-3-methoxy-5-(trifluoromethyl)phenyl)picolinamido)propanoic acid] registered a Ki of 38.7 nM.
On the same count and under the same terms, the value for `COc1cc(C(F)(F)F)cc(-c2ccc(C(=O)NCCC(=O)O)nc2)c1CNc1ccc(-c2ccc(Cl)cc2)c(Cl)c1` [Compound 162, 3-(5-(2-(((2,4′-dichloro-[1,1′-biphenyl]-4-yl)amino)methyl)-3-methoxy-5-(trifluoromethyl)phenyl)picolinamido)propanoic acid] was 46.9 nM; that for `Cc1cc(C(F)(F)F)cc(-c2ccc(C(=O)NCCC(=O)O)nc2)c1CNc1ccc(-c2ccc(C(F)(F)F)cc2)c(Cl)c1` [Compound 163] was 14.4 nM.
`O=C(O)CCNC(=O)c1ccc(-c2cc(C(F)(F)F)cc(O)c2CNc2ccc(-c3ccc(Cl)cc3)c(Cl)c2)cn1` [Compound 164, 3-(5-(2-(((2,4′-dichloro-[1,1′-biphenyl]-4-yl)amino)methyl)-3-hydroxy-5-(trifluoromethyl)phenyl)picolinamido)propanoic acid] showed a Ki at human GCGR of 61.2 nM.
`Cc1cc(Cl)ccc1-c1ccc(NCc2c(C)cc(C(F)(F)F)cc2-c2ccc(C(=O)NCCC(=O)O)nc2)cc1Cl` [Compound 165, 3-(5-(2-(((2,4′-dichloro-2′-methyl-[1,1′-biphenyl]-4-yl)amino)methyl)-3-methyl-5-(trifluoromethyl)phenyl)picolinamido)propanoic acid]: the Ki at human GCGR turned out to be 6.4 nM.
Still for that read-out and setting: then `Cc1cc(C(F)(F)F)ccc1-c1ccc(NCc2c(C)cc(C(F)(F)F)cc2-c2ccc(C(=O)NCCC(=O)O)nc2)cc1Cl` [Compound 166, 3-(5-(2-(((2-chloro-2′-methyl-4′-(trifluoromethyl)-[1,1′-biphenyl]-4-yl)amino)methyl)-3-methyl-5-(trifluoromethyl)phenyl)picolinamido)propanoic acid], with 8.2 nM; and `Cc1cc(C(F)(F)F)ccc1-c1ccc(NCc2c(-c3ccc(C(=O)NCCC(=O)O)nc3)cc(C(F)(F)F)cc2C(C)C)cc1Cl` [Compound 167], with 10.8 nM; and `Cc1cc(C(F)(F)F)ccc1-c1ccc(NCc2c(-c3ccc(C(=O)NCCC(=O)O)nc3)cc(C(F)(F)F)cc2C2CC2)cc1Cl` [Compound 177, 3-(5-(2-(((2-chloro-2′-methyl-4′-(trifluoromethyl)-[1,1′-biphenyl]-4-yl)amino)methyl)-3-cyclopropyl-5-(trifluoromethyl)phenyl)picolinamido)propanoic acid], with 5.3 nM.
On the same count and under the same terms, then `Cc1cc(Cl)ccc1-c1ccc(NCc2c(-c3ccc(C(=O)NCCC(=O)O)nc3)cc(C(F)(F)F)cc2C2CC2)cc1Cl` [Compound 178, 3-(5-(3-cyclopropyl-2-(((2,4′-dichloro-2′-methyl-[1,1′-biphenyl]-4-yl)amino)methyl)-5-(trifluoromethyl)phenyl)picolinamido)propanoic acid], with 6.3 nM; and `Cc1cc(C(F)(F)F)ccc1-c1ccc(NCc2c(-c3ccccc3)cc(C(F)(F)F)cc2-c2ccc(C(=O)NCCC(=O)O)nc2)cc1Cl` [Compound 179, 3-(5-(2-(((2-chloro-2′-methyl-4′-(trifluoromethyl)-[1,1′-biphenyl]-4-yl)amino)methyl)-5-(trifluoromethyl)-[1,1′-biphenyl]-3-yl)picolinamido)propanoic acid], with 19.6 nM.

Values taken from patent US8748624B2, “Picolinamido-propanoic acid derivatives useful as glucagon receptor antagonists” (Janssen Pharmaceutica NV, priority 2011, dated 2014).
